Results from patent publication US11389456B2, “Compounds and methods for treating oxalate-related diseases” (OxaluRx, Inc., priority 2018, dated 2022).
Values after ≈ are worked out from the molar mass of the structure shown.

Legend:
[1] = target: glycolate oxidase (GOX) in HepaRG-CAR cells (Homo sapiens (Human), UniProt Q9UJM8); assay: HepaRG-CAR cell-based assay for quantitation of glycolate oxidase inhibition (cellular glycolate flux, GC-MS); conditions: HepaRG-CAR cells, 500 μM glycolate, 48 hours incubation; read-out: IC50
glycolate oxidase (GOX) in HepaRG-CAR cells, sequence (Q9UJM8 whole entry): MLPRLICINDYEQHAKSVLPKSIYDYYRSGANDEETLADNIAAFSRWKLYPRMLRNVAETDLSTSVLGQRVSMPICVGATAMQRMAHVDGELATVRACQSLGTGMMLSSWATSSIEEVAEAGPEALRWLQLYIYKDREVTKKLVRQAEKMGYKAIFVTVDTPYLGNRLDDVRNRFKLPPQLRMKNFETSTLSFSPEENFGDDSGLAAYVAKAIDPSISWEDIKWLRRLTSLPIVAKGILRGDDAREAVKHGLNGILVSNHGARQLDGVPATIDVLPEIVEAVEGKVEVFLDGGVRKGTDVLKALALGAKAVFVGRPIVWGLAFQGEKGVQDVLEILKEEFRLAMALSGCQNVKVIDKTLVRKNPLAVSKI

[2] = Metabolic stability in human liver microsomal preparation; type: in vitro ADME; conditions: pH 7.4, human liver microsomes, NADPH, 37° C.
Procedure, shortened: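 Compound at 1.5 μM with 0.75 mg/mL human liver microsomes (concentrations before NADPH addition) in 0.1 M potassium phosphate, 1 mM EDTA, pH 7.4 was preincubated 5 min at 37 °C, then started with NADPH. Samples at 0, 5, 15, 30 and 45 min were quenched with acetonitrile/internal standard and analysed by LC/MS.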

[3] = Solubility in phosphate buffered saline (PBS), pH 7.4; type: physicochemical; conditions: phosphate buffer (PBS), aqueous buffer, kinetic from dmso stock; phosphate buffered saline pH 7.4, 1% DMSO, 1 hour shaking at room temperature
Procedure, shortened: (§1)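 DMSO stock (10 mM) diluted into 100 mM phosphate buffer pH 7.4, or into deionized distilled water for the aqueous assay, at 1% final DMSO and shaken 1 h at room temperature. After centrifugation, supernatants quantified by LC-MS/MS against a calibration curve with internal standard.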

[4] = Protein binding (plasma equilibrium dialysis); type: in vitro ADME; conditions: 5 hours at 37° C.
Procedure, shortened: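 Compound spiked into plasma at 1 μM final (0.2% DMSO) and dialysed against phosphate buffer for 5 hours at 37 °C with shaking. Donor and receiver samples, matrix-matched and acetonitrile-quenched with internal standard, quantified by LC/MS/MS alongside 0-hour plasma samples.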

[5] = Solubility in aqueous solution (deionized, distilled water); type: physicochemical; conditions: kinetic from dmso stock, 1% DMSO, read-out: Aqueous Solubility H2O
Procedure, shortened: as §1

O=C(O)c1nn[nH]c1Sc1ccc(Cl)cc1 [Example I-001, 5-((4-chlorophenyl)thio)-1H-1,2,3-triazole-4-carboxylic acid]
IC50 [1]: 1000 nM | CLint scaled at 1 μM [2]: 1.19 mL/min/kg | half-life at 1 μM ([2]; 0-45 min, read-out: Metabolic Stability t1/2): 24.3 h | solubility at 1 h [3]: 94.5 µM (≈ 24.1 µg/mL) | recovery at 5 h, 1 μM [4]: 75.4% | solubility at 1 h [5]: 83.8 µM (≈ 21.4 µg/mL)
